According to patent publication US20260027068A1, “METHODS OF ADM[…]-KETAMINE” (Perception Neuroscience, Inc., priority 2022, published 2026):

Experiments:
subjects with TRD [1] = assay: Modified Observer's Assessment of Alertness/Sedation (MOAA/S); details: 60 mg
Protocol: (§1) The Investigational Medicinal Product (IMP) R(−)-ketamine hydrochloride in sterile water for intravenous injection was investigated as an […] treatment of TRD. The International Union of Pure and Applied Chemistry (IUPAC) name is of the IMP is (2R)-2-(2-chlorophenyl)-2-(methylamino)cyclohexan-1-one. Subjects received the solution at either 30 mg or 60 mg dose, or a placebo. The IMP or placebo was administered on Day 1 as a single IV infusion via an electronic infusion pump over 40 minutes. The duration of study participation for each subject was up to 29 days including a screening period, a 3-day in-clinic visit, and 2 follow-up visits. 101 subjects were enrolled in approximately 20 study centers in the EU and the US.
The MOAA/S will were to determine if R(−)-ketamine causes the side effect of sedation and to what degree. Sedation was evaluated by the study staff using the MOAA/S. The observer recorded the subject's alertness pre-dose, every 20 minutes for first 2 hours post-dose, and at 4 and 6 hours after the start of the infusion.

subjects with TRD [2] = assay: Clinician-Administered Dissociative States Scale (CADSS)
Protocol: as §1
The CADSS was to assess the alertness or dissociative state of subjects administered R(−)-ketamine. The study staff evaluated the subject's degree of dissociation by administering the CADSS questionnaire pre-dose; at 40 minutes post-dose (at EoI); and at 2 and 4 hours post-dose.

[3] = 1 hour 40 min post start of infusion, n 35
[4] = 1 hour 50 min post start of infusion, n 11
[5] = 1 hour post start of infusion, n 35
[6] = to 1 hour 10 min post-start, n 11
[7] = to 1 hour 20 min post-start, n 34
[8] = to 1 hour 30 min post-start, n 11
[9] = to 1 hour 40 min post-start, n 35
[10] = to 1 hour 50 min post-start, n 11
[11] = 30 mg, 40 min post infusion start, n 33
[12] = 30 mg, 2 hours post infusion start, n 33
[13] = 30 mg, 4 hours post infusion start, n 33
[14] = 30 mg, 6 hours post infusion start, n 10
[15] = 30 mg, to 40 min post infusion start, n 33
[16] = 30 mg, to 2 hours post infusion start, n 33
[17] = 30 mg, to 4 hours post infusion start, n 33
[18] = 60 mg, 40 min post infusion start, n 35
[19] = 60 mg, 2 hours post infusion start, n 35
[20] = 60 mg, 4 hours post infusion start, n 34
[21] = 60 mg, 6 hours post infusion start, n 11
[22] = 60 mg, to 40 min post infusion start, n 35
[23] = 60 mg, to 2 hours post infusion start, n 35
[24] = 60 mg, to 4 hours post infusion start, n 34

For CN[C@@]1(c2ccccc2Cl)CCCCC1=O [PCN 101], the “MOAA/S score, Mean” value (subjects with TRD [1]; [3]) was 4.8, the “MOAA/S score, Median” value (subjects with TRD [1]; [3]) was 5.0 and the “MOAA/S score, Mean” value (subjects with TRD [1]; [4]) was 5.0. The “MOAA/S score, Median” value (subjects with TRD [1]; [4]) was 5.0, the “MOAA/S score, Mean” value (subjects with TRD [1]; [5]) was 4.8 and the “MOAA/S score, Median” value (subjects with TRD [1]; [5]) was 5.0. The “MOAA/S score, Mean” value (subjects with TRD [1]; 2 hours, n 35) was 4.8, the “MOAA/S score, Median” value (subjects with TRD [1]; 2 hours, n 35) was 5.0 and the “MOAA/S score, Mean” value (subjects with TRD [1]; 4 hours, n 32) was 4.9. For the same molecule, the “MOAA/S score, Median” value (subjects with TRD [1]; 4 hours, n 32) was 5.0, the “MOAA/S score, Mean” value (subjects with TRD [1]; 6 hours, n 32) was 5.0 and the “MOAA/S score, Median” value (subjects with TRD [1]; 6 hours, n 32) was 5.0. The “MOAA/S change from baseline, Mean” value (subjects with TRD [1]; to 10 min post-start, n 11) was −0.1, the “MOAA/S change from baseline, Median” value (subjects with TRD [1]; to 10 min post-start, n 11) was 0.0 and the “MOAA/S change from baseline, Mean” value (subjects with TRD [1]; to 20 min post-start, n 35) was −0.2. The “MOAA/S change from baseline, Median” value (subjects with TRD [1]; to 20 min post-start, n 35) was 0.0, the “MOAA/S change from baseline, Mean” value (subjects with TRD [1]; to 30 min post-start, n 11) was −0.1 and the “MOAA/S change from baseline, Median” value (subjects with TRD [1]; to 30 min post-start, n 11) was 0.0. For the same molecule, the “MOAA/S change from baseline, Mean” value (subjects with TRD [1]; to 40 min post-start, n 35) was −0.2, the “MOAA/S change from baseline, Median” value (subjects with TRD [1]; to 40 min post-start, n 35) was 0.0 and the “MOAA/S change from baseline, Mean” value (subjects with TRD [1]; to 50 min post-start, n 11) was −0.1. The “MOAA/S change from baseline, Median” value (subjects with TRD [1]; to 50 min post-start, n 11) was 0.0, the “MOAA/S change from baseline, Mean” value (subjects with TRD [1]; [6]) was 0.0 and the “MOAA/S change from baseline, Median” value (subjects with TRD [1]; [6]) was 0.0. The “MOAA/S change from baseline, Mean” value (subjects with TRD [1]; [7]) was −0.2, the “MOAA/S change from baseline, Median” value (subjects with TRD [1]; [7]) was 0.0 and the “MOAA/S change from baseline, Mean” value (subjects with TRD [1]; [8]) was 0.0. For the same molecule, the “MOAA/S change from baseline, Median” value (subjects with TRD [1]; [8]) was 0.0, the “MOAA/S change from baseline, Mean” value (subjects with TRD [1]; [9]) was −0.2 and the “MOAA/S change from baseline, Median” value (subjects with TRD [1]; [9]) was 0.0. The “MOAA/S change from baseline, Mean” value (subjects with TRD [1]; [10]) was 0.0, the “MOAA/S change from baseline, Median” value (subjects with TRD [1]; [10]) was 0.0 and the “MOAA/S change from baseline, Mean” value (subjects with TRD [1]; to 1 hour post-start, n 35) was −0.2. The “MOAA/S change from baseline, Median” value (subjects with TRD [1]; to 1 hour post-start, n 35) was 0.0, the “MOAA/S change from baseline, Mean” value (subjects with TRD [1]; to 2 hours, n 35) was −0.2 and the “MOAA/S change from baseline, Median” value (subjects with TRD [1]; to 2 hours, n 35) was 0.0. For the same molecule, the “MOAA/S change from baseline, Mean” value (subjects with TRD [1]; to 4 hours, n 32) was −0.1, the “MOAA/S change from baseline, Median” value (subjects with TRD [1]; to 4 hours, n 32) was 0.0 and the “MOAA/S change from baseline, Mean” value (subjects with TRD [1]; to 6 hours, n 32) was 0.0. For the same molecule, the “MOAA/S change from baseline, Median” value (subjects with TRD [1]; to 6 hours, n 32) was 0.0, the “CADSS score, Mean” value (subjects with TRD [2]; [11]) was 3.9 and the “CADSS score, Median” value (subjects with TRD [2]; [11]) was 2.0. For the same molecule, the “CADSS score, Mean” value (subjects with TRD [2]; [12]) was 1.1, the “CADSS score, Median” value (subjects with TRD [2]; [12]) was 0.0 and the “CADSS score, Mean” value (subjects with TRD [2]; [13]) was 0.4. The “CADSS score, Median” value (subjects with TRD [2]; [13]) was 0.0, the “CADSS score, Mean” value (subjects with TRD [2]; [14]) was 0.0 and the “CADSS score, Median” value (subjects with TRD [2]; [14]) was 0.0. The “CADSS change from baseline, Mean” value (subjects with TRD [2]; [15]) was 3.9, the “CADSS change from baseline, Median” value (subjects with TRD [2]; [15]) was 2.0 and the “CADSS change from baseline, Mean” value (subjects with TRD [2]; [16]) was 1.1. For the same molecule, the “CADSS change from baseline, Median” value (subjects with TRD [2]; [16]) was 0.0, the “CADSS change from baseline, Mean” value (subjects with TRD [2]; [17]) was 0.4 and the “CADSS change from baseline, Median” value (subjects with TRD [2]; [17]) was 0.0. For the same molecule, the “CADSS change from baseline, Mean” value (subjects with TRD [2]; 30 mg, to 6 hours, n 10) was −0.1, the “CADSS change from baseline, Median” value (subjects with TRD [2]; 30 mg, to 6 hours, n 10) was 0.0 and the “CADSS score, Mean” value (subjects with TRD [2]; [18]) was 4.3. For the same molecule, the “CADSS score, Median” value (subjects with TRD [2]; [18]) was 0.0, the “CADSS score, Mean” value (subjects with TRD [2]; [19]) was 1.1 and the “CADSS score, Median” value (subjects with TRD [2]; [19]) was 0.0. The “CADSS score, Mean” value (subjects with TRD [2]; [20]) was 0.3, the “CADSS score, Median” value (subjects with TRD [2]; [20]) was 0.0 and the “CADSS score, Mean” value (subjects with TRD [2]; [21]) was 0.0. The “CADSS score, Median” value (subjects with TRD [2]; [21]) was 0.0, the “CADSS change from baseline, Mean” value (subjects with TRD [2]; [22]) was 4.0 and the “CADSS change from baseline, Median” value (subjects with TRD [2]; [22]) was 0.0. The “CADSS change from baseline, Mean” value (subjects with TRD [2]; [23]) was 0.8, the “CADSS change from baseline, Median” value (subjects with TRD [2]; [23]) was 0.0 and the “CADSS change from baseline, Mean” value (subjects with TRD [2]; [24]) was −0.0. For the same molecule, the “CADSS change from baseline, Median” value (subjects with TRD [2]; [24]) was 0.0, the “CADSS change from baseline, Mean” value (subjects with TRD [2]; 60 mg, to 6 hours, n 11) was 0.0 and the “CADSS change from baseline, Median” value (subjects with TRD [2]; 60 mg, to 6 hours, n 11) was 0.0.
